The source of these data is patent US12534501B2, “Targeting deregulated Wnt signaling in cancer using stabilized alpha-helices of BCL-9” (Dana-Farber Cancer Institute, Inc., priority 2011, dated 2026).

Numbered stars: 1 amine (or outer) side, 2 acyl side, 3 side chain; on linkers, the order of the positions; unused ones are H or OH. Bridge positions count the residues as written; N and C are the ends. Square brackets hold non-standard residues; d marks the D form. Peptide text beside a SMILES is read from it. ξ: configuration not given here. ξαMeNle(6-ylidene) = CC(CCCC=[*:3])(N[*:1])C(=O)[*:2]; Nle = CCCC[C@H](N)C(=O)O

One assay has as its system MM1S cells. Briefly: Combination with doxorubicin, 3H-thymidine incorporation. Conditions: increasing concentrations of Dox. In kind it is cell-based. On the procedure: (§1) To test whether the anti-proliferative effect of SAH-BCL9B could synergize with other agents commonly used to treat MM or CRC, combination treatment studies were conducted. Indeed, the cytotoxic effects of 5-fluorouracil on CRC cells and of doxorubicin on MM cells were enhanced by SAH-BCL9B, but not by vehicle or the mutant peptide. See results in FIG. 21.

The next assay has as its system HUVEC. Briefly: In vitro angiogenesis assay (capillary tube formation). In kind it is cell-based, human. The conditions noted are these: HUVEC with supernatants of Colo320 or MM1S cells treated at 5 μM for 24 h; read at 5 h. Here is the method: Angiogenesis was evaluated as previously described (Mani, M. et al. Cancer Res 69, 7577-86 (2009)) using an in vitro angiogenesis assay kit (Millipore). For capillary tube formation analysis, HUVEC were cultured on polymerized matrix gel and exposed to supernatant media collected from Colo320 or MM1S cells treated with vehicle (0.5% DMSO), SAH-BCL9B peptides (5 μM) for 24 h. The number of capillary tubes formed after 5 h treatment at 37° C. was determined by counting 5 randomly selected fields at 40× magnification, according to manufacture's instructions. HUVEC cultured in VEGF media and VEGF-free media were used as positive and negative controls, respectively. Cellular invasion assays were performed using Matrigel Boyden chambers (BD Biosciences) as described (Mani, M. et al. Cancer Res 69, 7577-86 (2009)). The reported data represent the average of three independent experiments performed in triplicate. See results in FIG. 3H-FIG. 3I.

Assay [1] deals with Wnt target genes in MM1S cells. Briefly: qRT-PCR of Wnt/β-catenin target genes. The format is cell-based. The conditions noted are these: MM1S (FIG. 19A), 10 μM. Here is the method:
To measure the effects of vehicle, SAH-BCL9B, and SAH-BCL9MUT on the expression of Wnt/β-catenin target genes, including VEGF, in Colo320 (FIG. 18) and MM1S (FIG. 19) cell lines, quantitative PCR (qRT-PCR) analysis was performed. RNA was extracted with TRIzol Reagent (Invitrogen) according to the manufacturer's protocol. Total RNA (2 μg) was reverse transcribed (SuperScript VILO cDNA synthesis kit, Invitrogen) and qPCR was performed using an Applied Biosynthesis 7500 Real-time PCR system. PCR primers were designed as below: […]
Analysis of target genes was conducted in quadruplicate using POWER SYBR Green Master Mix (Applied Biosystems) as previously described (M. Mani et al., Cancer Res 69, 7577 (2009)). Transcripts levels were normalized to β-actin expression. These experiments were repeated three times.
In general terms: In qPCR the cycle at which signal appears reflects the starting amount.

The subject of the next assay is Colo320 cells. The experiment in a line: Combination with 5-fluorouracil, 3H-thymidine incorporation. Conditions: Colo320, increasing concentrations of 5-FU. In kind it is cell-based. On the procedure: as §1
In general terms: Incorporation of labelled thymidine or its analogues reports DNA synthesis.

As to `CCCC[C@H](NC(=O)[C@H](CCCNC(=N)N)NC(=O)[C@H](CCC(N)=O)NC(=O)[C@@H](NC(=O)C1(C)CCCC=CCCCC(C)(NC(=O)[C@H](CC(C)C)NC(=O)[C@H](CO)NC(=O)[C@H](CCCNC(=N)N)NC(=O)[C@H](CCC(=O)O)NC(=O)[C@H](CCCNC(=N)N)NC(=O)[C@H](Cc2c[nH]cn2)NC(=O)[C@H](CCC(=O)O)NC(=O)[C@H](CC(C)C)NC(=O)[C@H](CCC(N)=O)NC(=O)[C@H](CCC(=O)O)NC(=O)[C@H](CCC(N)=O)NC(=O)[C@H](CO)NC(=O)[C@H](CC(C)C)NC(C)=O)C(=O)N[C@@H]([C@@H](C)O)C(=O)N[C@@H](CC(C)C)C(=O)N[C@@H](CCCNC(=N)N)C(=O)N1)[C@@H](C)CC)C(=O)N[C@@H](CC(C)C)C(=O)N[C@@H](Cc1ccccc1)C(N)=O` (stereo partly shown) [SAH-BCL9B] (Ac-LSQEQLEHRERSL[ξαMeNle(6-ylidene)]TLR[ξαMeNle(6-ylidene)]IQR[Nle]LF-NH2; staple 14-18), the “enhancement of anti-tumor activity of doxorubicin” value with MM1S cells is listed as “significantly enhanced the anti-tumor activity”. The capillary tube formation entry with HUVEC was “reduced capillary tube formation”. Further, the “mRNA levels of VEGF, c-MYC, LGR5, LEF1, and AXIN2” value in assay [1] was “dose-responsively reduced”. In addition, in the assay on Colo320 cells, the “enhancement of anti-tumor activity of 5-fluorouracil” value is recorded as “significantly enhanced the anti-tumor activity”.
